Assay results: ChEMBL document CHEMBL3885881, “DrugMatrix”

Species on record: Rattus norvegicus
Assay: DrugMatrix - Regimen: Daily Repeat
Format: toxicity, organism-based, Sprague-Dawley
Parameters: regimen Daily Repeat, gender Male, age 6-8 weeks
Settings: in vivo, po, route oral GAVAGE, vehicle 100 % SALINE; for ABSOLUTE BASOPHIL / ABSOLUTE EOSINOPHIL / ABSOLUTE LYMPHOCYTE / ABSOLUTE MONOCYTE / ABSOLUTE SEGMENTED NEUTROPHIL / BASOPHIL / EOSINOPHIL / ERYTHROCYTE COUNT / HEMATOCRIT / HEMOGLOBIN / LEUKOCYTE COUNT / MEAN CORPUSCULAR HEMOGLOBIN / MEAN CORPUSCULAR HEMOGLOBIN CONCENTRATION / MEAN CORPUSCULAR VOLUME / MONOCYTE / NEUTROPHIL / NUCLEATED RED BLOOD CELLS / PLATELET COUNT: tissue Blood; for ALANINE AMINOTRANSFERASE / ALBUMIN / ALKALINE PHOSPHATASE / ASPARTATE AMINOTRANSFERASE / BLOOD UREA NITROGEN / CARBON DIOXIDE / CHLORIDE / CHOLESTEROL / CREATINE PHOSPHOKINASE / CREATININE / GLUCOSE / LACTATE DEHYDROGENASE / LIPASE / PHOSPHORUS / POTASSIUM / SODIUM / TOTAL BILIRUBIN / TOTAL PROTEIN / URIC ACID: tissue Plasma
[1] = 40 mg/kg, 120 h, dose level Low, time 5 day
[2] = 195 mg/kg, 72 h, dose level High, time 3 day
[3] = 195 mg/kg, 120 h, dose level High, time 5 day

## Oc1ccccc1O [CATECHOL]
[1]
  ABSOLUTE BASOPHIL: 0 CELLS/uL
  ABSOLUTE EOSINOPHIL: 30.67 CELLS/uL
  ABSOLUTE LYMPHOCYTE: 8416.67 CELLS/uL
  ABSOLUTE MONOCYTE: 0 CELLS/uL
  ABSOLUTE SEGMENTED NEUTROPHIL: 952.67 CELLS/uL
  BASOPHIL: 0%
  EOSINOPHIL: 0.33%
  ERYTHROCYTE COUNT: 5.53 x10E6/uL
  HEMATOCRIT: 33.83%
  HEMOGLOBIN: 13.17 G/DL
  LEUKOCYTE COUNT: 9.4 x10E3/uL
  MEAN CORPUSCULAR HEMOGLOBIN: 23.8 pg
  MEAN CORPUSCULAR HEMOGLOBIN CONCENTRATION: 38.93 G/DL
  MEAN CORPUSCULAR VOLUME: 61.13 fL
  MONOCYTE: 0%
  NEUTROPHIL: 10.67%
  NUCLEATED RED BLOOD CELLS: 0 /100WBC
  PLATELET COUNT: 1168.67 x10E3/uL
  ALANINE AMINOTRANSFERASE: 60.67 u/L
  ALBUMIN: 4.17 G/DL
  ALKALINE PHOSPHATASE: 318.33 u/L
  ASPARTATE AMINOTRANSFERASE: 89.67 u/L
  BLOOD UREA NITROGEN: 16 mg/dL
  CARBON DIOXIDE: 26 mmol/L
  CHLORIDE: 104.67 MEQ/L
  CHOLESTEROL: 77.67 mg/dL
  CREATINE PHOSPHOKINASE: 225.33 u/L
  CREATININE: 0.14 mg/dL
  GLUCOSE: 162 mg/dL
  LACTATE DEHYDROGENASE: 134.67 u/L
  LIPASE: 9 u/L
  PHOSPHORUS: 10.23 mg/dL
  POTASSIUM: 5.58 MEQ/L
  SODIUM: 152 MEQ/L
  TOTAL BILIRUBIN: 0.2 mg/dL
  TOTAL PROTEIN: 6.03 G/DL
  URIC ACID: 0.77 mg/dL
[2]
  ABSOLUTE BASOPHIL: 0 CELLS/uL
  ABSOLUTE EOSINOPHIL: 0 CELLS/uL
  ABSOLUTE LYMPHOCYTE: 16294.67 CELLS/uL
  ABSOLUTE MONOCYTE: 122.33 CELLS/uL
  ABSOLUTE SEGMENTED NEUTROPHIL: 1316.33 CELLS/uL
  BASOPHIL: 0%
  EOSINOPHIL: 0%
  ERYTHROCYTE COUNT: 5.5 x10E6/uL
  HEMATOCRIT: 33.6%
  HEMOGLOBIN: 13.2 G/DL
  LEUKOCYTE COUNT: 17.73 x10E3/uL
  MEAN CORPUSCULAR HEMOGLOBIN: 24 pg
  MEAN CORPUSCULAR HEMOGLOBIN CONCENTRATION: 39.27 G/DL
  MEAN CORPUSCULAR VOLUME: 61.13 fL
  MONOCYTE: 0.67%
  NEUTROPHIL: 7.33%
  NUCLEATED RED BLOOD CELLS: 0 /100WBC
  PLATELET COUNT: 1440 x10E3/uL
  ALANINE AMINOTRANSFERASE: 50.67 u/L
  ALBUMIN: 4.1 G/DL
  ALKALINE PHOSPHATASE: 278.67 u/L
  ASPARTATE AMINOTRANSFERASE: 78 u/L
  BLOOD UREA NITROGEN: 12.33 mg/dL
  CARBON DIOXIDE: 25 mmol/L
  CHLORIDE: 100.33 MEQ/L
  CHOLESTEROL: 73 mg/dL
  CREATINE PHOSPHOKINASE: 460.33 u/L
  CREATININE: 0.2 mg/dL
  GLUCOSE: 161.33 mg/dL
  LACTATE DEHYDROGENASE: 133.67 u/L
  LIPASE: 10.67 u/L
  PHOSPHORUS: 11.7 mg/dL
  POTASSIUM: 6.15 MEQ/L
  SODIUM: 140.17 MEQ/L
  TOTAL BILIRUBIN: 0.17 mg/dL
  TOTAL PROTEIN: 5.9 G/DL
  URIC ACID: 1.73 mg/dL
[3]
  ABSOLUTE BASOPHIL: 0 CELLS/uL
  ABSOLUTE EOSINOPHIL: 0 CELLS/uL
  ABSOLUTE LYMPHOCYTE: 12717.67 CELLS/uL
  ABSOLUTE MONOCYTE: 34 CELLS/uL
  ABSOLUTE SEGMENTED NEUTROPHIL: 981.67 CELLS/uL
  BASOPHIL: 0%
  EOSINOPHIL: 0%
  ERYTHROCYTE COUNT: 5.35 x10E6/uL
  HEMATOCRIT: 33.67%
  HEMOGLOBIN: 13.33 G/DL
  LEUKOCYTE COUNT: 13.73 x10E3/uL
  MEAN CORPUSCULAR HEMOGLOBIN: 24.93 pg
  MEAN CORPUSCULAR HEMOGLOBIN CONCENTRATION: 39.6 G/DL
  MEAN CORPUSCULAR VOLUME: 62.9 fL
  MONOCYTE: 0.33%
  NEUTROPHIL: 7%
  NUCLEATED RED BLOOD CELLS: 0 /100WBC
  PLATELET COUNT: 1267.33 x10E3/uL
  ALANINE AMINOTRANSFERASE: 63.67 u/L
  ALBUMIN: 4.47 G/DL
  ALKALINE PHOSPHATASE: 326 u/L
  ASPARTATE AMINOTRANSFERASE: 93 u/L
  BLOOD UREA NITROGEN: 15.33 mg/dL
  CARBON DIOXIDE: 27 mmol/L
  CHLORIDE: 102.67 MEQ/L
  CHOLESTEROL: 74.33 mg/dL
  CREATINE PHOSPHOKINASE: 321 u/L
  CREATININE: 0.14 mg/dL
  GLUCOSE: 145.33 mg/dL
  LACTATE DEHYDROGENASE: 130.67 u/L
  LIPASE: 10 u/L
  PHOSPHORUS: 10.1 mg/dL
  POTASSIUM: 6.03 MEQ/L
  SODIUM: 151 MEQ/L
  TOTAL BILIRUBIN: 0.2 mg/dL
  TOTAL PROTEIN: 6.43 G/DL
  URIC ACID: 0.73 mg/dL
